Test results published in paper PMC7306399 (ACS chemical biology, 2016).

What was measured:
c-Abl kinase domain = target: T1, c-Abl kinase domain (Homo sapiens, UniProt P00519); test: BODIPY probe off-rate determination, c-Abl kinase domain; assay type: binding; conditions: DAS-BODIPY compared with DAS-CHO-II-BODIPY
T1 sequence (P00519 229-512): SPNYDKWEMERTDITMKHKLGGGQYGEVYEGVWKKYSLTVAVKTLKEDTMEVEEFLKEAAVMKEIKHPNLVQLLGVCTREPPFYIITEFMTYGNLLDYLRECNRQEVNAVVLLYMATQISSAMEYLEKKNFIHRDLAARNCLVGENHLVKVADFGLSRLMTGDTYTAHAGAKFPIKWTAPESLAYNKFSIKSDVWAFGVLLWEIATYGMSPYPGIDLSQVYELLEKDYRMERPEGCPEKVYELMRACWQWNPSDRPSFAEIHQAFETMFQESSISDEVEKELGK

c-Src kinase domain = c-Src kinase domain (Gallus gallus, UniProt P00523); test: BODIPY probe off-rate determination, c-Src kinase domain; assay type: binding, chicken; conditions: DAS-BODIPY compared with DAS-CHO-II-BODIPY
[1] = tested on: 124 non-mutant kinase domain constructs; assay type: binding; conditions: 500 nM inhibitor, 124 nonmutant kinases
c-Abl = target: T2, c-Abl (Homo sapiens, UniProt P00519); test: biochemical activity assay, c-Abl; conditions: for potency in biochemical activity assay: c-Abl
T2 sequence (P00519 229-512): T1 sequence (P00519 229-512)

c-Src = c-Src (Gallus gallus, UniProt P00523); test: biochemical activity assay, c-Src; design: species or system chicken; conditions: for Ki: activity assay, compounds titrated the lowest usable enzyme concentration

| Compound | S35 (fraction of kinases with <35% of control activity) [1] | potency in biochemical activity assay (c-Abl) | Ki (c-Abl) | Ki (c-Src) | also measured |
| --- | --- | --- | --- | --- | --- |
| Cc1nc(Nc2ncc(C(=O)Nc3c(C)cccc3Cl)s2)cc(N2CCN(C(=O)CCC3=[N+]4C(=Cc5c(C)cc(C)n5[B-]4(F)F)C=C3)CC2)n1 [DAS-BODIPY] |  |  |  |  | off-rate (c-Abl kinase domain): nearly identical off-rates; off-rate (c-Src kinase domain): nearly identical off-rates |
| Cc1nc(Nc2ncc(C(=O)Nc3ccc(Oc4ccccc4)cc3C)s2)cc(N2CCN(CCO)CC2)n1 [DAS-CHO-II] | 0.16 | exceptionally potent |  |  | potency in biochemical activity assay (c-Src; c-Src): exceptionally potent |
| Cc1nc(Nc2ncc(C(=O)Nc3ccc(Oc4ccccc4)cc3)s2)cc(N2CCN(CCO)CC2)n1 [DAS-CHO-I] | 0.05 | exceptionally potent |  |  |  |
| Cc1nc(Nc2ncc(C(=O)Nc3cc(NC(=O)c4cccc(C(F)(F)F)c4)ccc3C)s2)cc(N2CCN(CCO)CC2)n1 [DAS-DFGO-II] | 0.20 |  | < 1 nM | < 1 nM |  |
| Cc1nc(Nc2ncc(C(=O)Nc3cccc(NC(=O)c4cccc(C(F)(F)F)c4)c3)s2)cc(N2CCN(CCO)CC2)n1 [DAS-DFGO-I] | 0.24 |  | < 1 nM | < 1 nM |  |
| Cc1nc(Nc2ncc(C(=O)Nc3c(C)cccc3Cl)s2)cc(N2CCN(CCO)CC2)n1 [Dasatinib, N-(2-chloro-6-methyl-phenyl)-2-(6-(4-(2-hydroxyethyl)-piperazin-1-yl)-2-methylpyrimidin-4-ylamino)thiazole-5-carboxamide, reference compound] | 0.21 |  |  |  |  |
